Source: patent publication US4933347A, “Diamidines and bis(imidazolines) for the treatment of and prophylaxis against pneumocystis carinii pneumonia” (University of North Carolina at Chapel Hill, priority 1988, dated 1990)

Test system: Pneumocystis carinii
Experiment: Treatment of Pneumocystis carinii pneumonia in Sprague-Dawley rats (extent of disease by histologic score)
Type: in vivo, male Sprague-Dawley rats
Settings: for Extent of Disease by Histologic Score: number of animals with score 0.5 / Extent of disease by histologic score (combined): number of animals in scoring group 0.5: 0.5 = <10 cysts found per 2 sections; for Extent of disease by histologic score (combined): number of animals in scoring group 0.5 / Extent of disease by histologic score (combined): number of animals in scoring group 1 / Extent of disease by histologic score (combined): number of animals in scoring group 2 / Extent of disease by histologic score (combined): number of animals in scoring group 3 / Extent of disease by histologic score (combined): number of animals in scoring group 4: Table XII composite; for Extent of disease by histologic score (combined): number of animals in scoring group 2: 5-10% of lung involved
Procedure: Induction and Treatment Of Pneumocystis Carinii in Sprague-Dawley Rats
Male Sprague-Dawley rats, barrier raised, non-certified virus free, weighing 150-200g were obtained from Hilltop Laboratories and housed individually. Animals were begun on a low (8%) protein diet (ICN Biomedicals, Cincinnati, OH) and drinking water containing tetracycline (0.5 mg/ml) and dexamethasone (1.0 μg/ml) immediately upon arrival. This treatment was given for the next 8 weeks, monitoring fluid intake daily and weighing animals weekly. Dilutions of the drinking solution were made when animals consumed too much fluid so as to prevent cortisone poisoning. At the beginning of the sixth week, animals were divided into groups of 8 animals each and the test compounds were administered daily by i.v. injection at a dose of 10 mg/kg, unless otherwise noted, for the next 14 days.
Animals were sacrificed at the end of the eighth week by chloroform inhalation and the left lung was removed aseptically and placed in sterile Hank's balanced salts solution without calcium or magnesium (HBSS-) for the ground tissue procedure. The right lung was inflated in situ with 10% […] and removed for histologic examination GMS staining. […]

[1] = 10 mg/kg unless otherwise noted
[2] = 10 mg/kg i.v. daily, 14 days, 1 = scattered cysts, <5% of lung involved
[3] = 10 mg/kg i.v. daily, 14 days, 2 = scattered cysts, 5-10% lung involved or small foci of infection
[4] = 10 mg/kg i.v. daily, 14 days, 3 = scattered cysts, 10-50% of lung involved with some intense areas of infection
[5] = 10 mg/kg i.v. daily, 14 days, 4 = >50% of lung involved with many intense areas of focal infection
[6] = 10 mg/kg, 1 = scattered cysts, <5% of lung involved
[7] = 10 mg/kg, 3 = scattered cysts, 10-50% of lung involved
[8] = 10 mg/kg, 4 = >50% of lung involved

| Compound | Efficacy in treating PCP compared with pentamidine [1] | Extent of Disease by Histologic Score: number of animals with score 0.5 (10 mg/kg i.v. daily, 14 days) [animals] | Extent of Disease by Histologic Score: number of animals with score 1 [2] [animals] | Extent of Disease by Histologic Score: number of animals with score 2 [3] [animals] | Extent of Disease by Histologic Score: number of animals with score 3 [4] [animals] | Extent of Disease by Histologic Score: number of animals with score 4 [5] [animals] | Extent of disease by histologic score (combined): number of animals in scoring group 0.5 (10 mg/kg) [animals] | Extent of disease by histologic score (combined): number of animals in scoring group 1 [6] [animals] | Extent of disease by histologic score (combined): number of animals in scoring group 2 (10 mg/kg, 2 = scattered cysts) [animals] | Extent of disease by histologic score (combined): number of animals in scoring group 3 [7] [animals] | Extent of disease by histologic score (combined): number of animals in scoring group 4 [8] [animals] | other results |
| --- | --- | --- | --- | --- | --- | --- | --- | --- | --- | --- | --- | --- |
| COc1cc(C(=N)N)ccc1OCCCCCOc1ccc(C(=N)N)cc1OC [Example 15] | improved performance in treating pcp | – | – | – | – | – | – | – | – | – | – | Extent of Disease by Histologic Score: number of animals with score 0.5 (5 mg/kg i.v. daily, 14 days): 0 animals; Extent of Disease by Histologic Score: number of animals with score 1 (5 mg/kg i.v. daily, 14 days, 1 = scattered cysts, <5% of lung involved): 3 animals; Extent of Disease by Histologic Score: number of animals with score 2 (5 mg/kg i.v. daily, 14 days, 2 = scattered cysts, 5-10% lung involved or small foci of infection): 4 animals; Extent of Disease by Histologic Score: number of animals with score 3 (5 mg/kg i.v. daily, 14 days, 3 = scattered cysts, 10-50% of lung involved with some intense areas of infection): 1 animals; Extent of Disease by Histologic Score: number of animals with score 4 (5 mg/kg i.v. daily, 14 days, 4 = >50% of lung involved with many intense areas of focal infection): 0 animals; Extent of Disease by Histologic Score: number of animals with score 0.5 (Table III, Example 15 (Table XII footnote d: 2.5 mg/kg)): 2 animals; Extent of Disease by Histologic Score: number of animals with score 1 (Table III, Example 15 (Table XII footnote d: 2.5 mg/kg), 1 = <5% of lung involved): 1 animals; Extent of Disease by Histologic Score: number of animals with score 2 (Table III, Example 15 (Table XII footnote d: 2.5 mg/kg), 2 = 5-10% lung involved): 3 animals; Extent of Disease by Histologic Score: number of animals with score 3 (Table III, Example 15 (Table XII footnote d: 2.5 mg/kg), 3 = 10-50% of lung involved): 0 animals; Extent of Disease by Histologic Score: number of animals with score 4 (Table III, Example 15 (Table XII footnote d: 2.5 mg/kg), 4 = >50% of lung involved): 0 animals; Extent of disease by histologic score (combined): number of animals in scoring group 0.5 (tested at 2.5 mg/kg): 2 animals; Extent of disease by histologic score (combined): number of animals in scoring group 1 (tested at 2.5 mg/kg, 1 = scattered cysts, <5% of lung involved): 4 animals; Extent of disease by histologic score (combined): number of animals in scoring group 2 (tested at 2.5 mg/kg, 2 = scattered cysts): 7 animals; Extent of disease by histologic score (combined): number of animals in scoring group 3 (tested at 2.5 mg/kg, 3 = scattered cysts, 10-50% of lung involved): 1 animals; Extent of disease by histologic score (combined): number of animals in scoring group 4 (tested at 2.5 mg/kg, 4 = >50% of lung involved): 0 animals; Efficacy in treating PCP compared with control (compound at 5 mg/kg): significantly better, at one half the dose, than the control |
| N=C(N)c1ccc(NCCCCCNc2ccc(C(=N)N)cc2N)c(N)c1 [Example 19] | not as good as pentamidine in controlling pcp | 0 | 2 | 4 | 2 | 0 | 3 | 2 | 3 | 0 | 0 | Efficacy in treating PCP compared with control [1]: better than the control |
| N=C(N)c1ccc(OCCCCCCOc2ccc(C(=N)N)cc2)cc1 [Example 20, hexamidine, reference compound] | improved performance in treating pcp | 3 | 3 | 1 | 0 | 0 | 3 | 3 | 1 | 0 | 0 | – |
| N=C(N)c1ccc(OCCCCCCOc2ccc(C(=N)N)cc2[N+](=O)[O-])c([N+](=O)[O-])c1 [Example 21] | – | – | – | – | – | – | – | – | – | – | – | Extent of Disease by Histologic Score: number of animals with score 0.5 (1.25 mg/kg (dose from Table XII footnote e)): 4 animals; Extent of Disease by Histologic Score: number of animals with score 1 (1.25 mg/kg (dose from Table XII footnote e), 1 = scattered cysts, <5% of lung involved): 1 animals; Extent of Disease by Histologic Score: number of animals with score 2 (1.25 mg/kg (dose from Table XII footnote e), 2 = scattered cysts, 5-10% lung involved or small foci of infection): 1 animals; Extent of Disease by Histologic Score: number of animals with score 3 (1.25 mg/kg (dose from Table XII footnote e), 3 = scattered cysts, 10-50% of lung involved): 0 animals; Extent of Disease by Histologic Score: number of animals with score 4 (1.25 mg/kg (dose from Table XII footnote e), 4 = >50% of lung involved): 0 animals; Extent of disease by histologic score (combined): number of animals in scoring group 0.5 (tested at 1.25 mg/kg): 4 animals; Extent of disease by histologic score (combined): number of animals in scoring group 1 (tested at 1.25 mg/kg, 1 = scattered cysts, <5% of lung involved): 1 animals; Extent of disease by histologic score (combined): number of animals in scoring group 2 (tested at 1.25 mg/kg, 2 = scattered cysts): 1 animals; Extent of disease by histologic score (combined): number of animals in scoring group 3 (tested at 1.25 mg/kg, 3 = scattered cysts, 10-50% of lung involved): 0 animals; Extent of disease by histologic score (combined): number of animals in scoring group 4 (tested at 1.25 mg/kg, 4 = >50% of lung involved): 0 animals |
| N=C(N)c1ccc(NCCCCCCNc2ccc(C(=N)N)cc2N)c(N)c1 [Example 23] | – | 3 | 1 | 2 | 0 | 1 | 3 | 1 | 2 | 0 | 1 | – |
| N=C(N)c1cccc(OCCCOc2cccc(C(=N)N)c2)c1 [Example 26] | – | 2 | 1 | 4 | 1 | 0 | 2 | 1 | 4 | 1 | 0 | – |
| N=C(N)c1cccc(OCCCCOc2cccc(C(=N)N)c2)c1 [Example 27] | – | 2 | 1 | 1 | 3 | 0 | 2 | 1 | 1 | 3 | 0 | – |
| N=C(N)c1cccc(OCCCCCOc2cccc(C(=N)N)c2)c1 [Example 28] | – | – | – | – | – | – | 4 | 3 | 6 | 2 | 1 | – |
| N=C(N)c1cccc(OCCCCCCOc2cccc(C(=N)N)c2)c1 [Example 29] | – | 1 | 4 | 1 | 2 | 0 | 1 | 4 | 1 | 2 | 0 | – |
